The values that follow come from patent publication US8367622B2, “Sulfated C-glycoside, method for isolating same and method for synthesizing same” (Shizuoka Prefecture Public University Corporation, priority 2009, dated 2013).

“Also recorded” adds a separate entry of the source. Like-named read-outs stand apart in the source and are kept apart here.

Data set [1] deals with intestinal polyp formation induced by azoxymethane (AOM). The settings on record: 2.5 mg/kg, same dosage as indomethacin; cited from earlier work.
The subject of data set [2] is atopic disease model induced by 2,4-dinitro-fluorobenzene. The settings on record: cited from earlier work; for activity in atopic disease model: oral administration, ingredients isolated from oolong tea.
Data set [3] can be described thus: Water solubility. The format is physicochemical. From the text: Considering the fact that sulfation has been correlated with mechanism of detoxification elimination in metabolism, the presence of precursors of chafuroside which are sulfated derivatives in tea leaves has great significance. As for isovitexin and vitexin, their anticancer effect, effect of reducing damages by UV irradiation, inhibiting effect of COX, antioxidant effect, antianxiety effect and the like have been drawing the attention recently.
(§1) In the result, the production of chafurosides A and B by heating was detected only in all of the extracts and their aqueous fractions.

Data set [4] in a line: Liquid-liquid partition with water and n-BuOH. The note with it: qualitative. It counts as physicochemical. The procedure: 1 g of oolong tea leaves prepared from Shizu 7132 was ground and was subjected to extract with MeOH, 50%-MeOH and water (1 ml) under reflux. After concentrating, drying and solidifying the extract liquid under reduced pressure, it was suspended in water (0.4 ml) and then was extracted with n-BuOH (4 ml and 1 ml). All of the extracts, their aqueous fractions and n-BuOH fractions obtained by liquid-liquid partition thereof were heated at 160° C. for 40 minutes.
as §1

Turning to `O=c1cc(-c2ccc(O)cc2)oc2cc3c(c(O)c12)[C@@H]1O[C@H](CO)[C@@H](O)[C@H](O)[C@@H]1O3` [chafuroside A], the “inhibiting activity against intestinal polyp formation” value in data set [1] is “effectively-inhibiting activity”. Moreover, in data set [2] (10 μg/kg, comparable with Prednisolone (10 mg/kg) and Betamethasone (0.8 mg/kg)), the dermal inflammation-inhibiting activity entry is “significant dermal inflammation-inhibiting activity”. Moreover, the “activity in atopic disease model” value in data set [2] was “exhibiting activities via oral administration”.
On to `O=c1cc(-c2ccc(O)cc2)oc2c3c(cc(O)c12)O[C@H]1[C@@H](O)[C@H](O)[C@@H](CO)O[C@@H]31` [chafuroside B], for which the “activity in atopic disease model” value in data set [2] is “exhibiting activities via oral administration”.
With `O=c1cc(-c2ccc(O)cc2)oc2cc(O)c([C@@H]3O[C@H](CO)[C@@H](O)[C@H](O)[C@H]3O)c(O)c12` [isovitexin], the solubility in water entry in data set [3] (qualitative) is listed as “very poorly soluble in water”. For the same compound, the “fraction after liquid-liquid partition water / n-butanol” value in data set [4] is reported as “move to the n-butanol solvent fraction”; in data set [4] (listed as Isovitexin), “move to n-BuOH fractions”.
`O=c1cc(-c2ccc(O)cc2)oc2cc(O)c([C@@H]3O[C@H](CO)[C@@H](O)[C@H](O)[C@H]3OS(=O)(=O)O)c(O)c12` [prechafuroside A, isovitexin 2″-O-sulfate]: in data set [3], the solubility in water result is on record as “high water solubility”.
Still for that read-out and setting: for `O=c1cc(-c2ccc(O)cc2)oc2c([C@@H]3O[C@H](CO)[C@@H](O)[C@H](O)[C@H]3OS(=O)(=O)O)c(O)cc(O)c12` [prechafuroside B, vitexin 2″-O-sulfate] the value was “high water solubility”.
`O=c1cc(-c2ccc(O)cc2)oc2c([C@@H]3O[C@H](CO)[C@@H](O)[C@H](O)[C@H]3O)c(O)cc(O)c12` [vitexin]: the solubility in water entry in data set [3] (qualitative) is “very poorly soluble in water”. Moreover, the “fraction after liquid-liquid partition water / n-butanol” value in data set [4] is listed as “move to n-BuOH fractions; also recorded: move to the n-butanol solvent fraction”.
